Experimental data reported in BindingDB's records for doi:10.1021/np2005083 (National Cancer Institute-Frederick, 2011).

Biological target: Transcription factor Jun (Homo sapiens, UniProt P05412)
Assay: Inhibition of AP1 expressed in HEK293T cells coexpressing beta-lactamase pre-incubated 1 hr before TPA addition measured 18 hrs post TPA challenge by fluorimetric assay

Sequence of Transcription factor Jun (P05412 whole entry): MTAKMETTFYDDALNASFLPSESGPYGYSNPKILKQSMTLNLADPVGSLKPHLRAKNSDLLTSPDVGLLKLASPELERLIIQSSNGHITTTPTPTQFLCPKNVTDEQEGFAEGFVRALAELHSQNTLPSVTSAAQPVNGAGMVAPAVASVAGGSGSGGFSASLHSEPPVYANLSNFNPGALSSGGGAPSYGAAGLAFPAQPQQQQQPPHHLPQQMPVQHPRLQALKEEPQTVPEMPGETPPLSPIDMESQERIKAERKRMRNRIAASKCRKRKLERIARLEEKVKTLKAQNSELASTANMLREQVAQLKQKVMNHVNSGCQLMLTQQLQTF

Row | Compound | IC50 [µM]
1 | CC(C)[C@H]1C(=O)N2CCC[C@H]2C(=O)N(C)[C@H](Cc2ccccc2)C2=N[C@@H](CS2)C(=O)N[C@H](C)C2=N[C@@H](CS2)C(=O)N(C)[C@H](Cc2ccccc2)C(=O)N[C@H](C(C)C)C(=O)N[C@H](C)[C@@H](C)C(=O)O[C@@H](Cc2ccccc2)C(=O)N1C | 6
2 | CC[C@H]1NC(=O)[C@@H]2CSC(=N2)[C@@H](Cc2ccccc2)N(C)C(=O)[C@@H]2CCCN2C(=O)[C@H](C(C)C)N(C)C(=O)[C@H](Cc2ccccc2)OC(=O)[C@H](C)[C@@H](C)NC(=O)[C@@H](C(C)C)NC(=O)[C@@H](Cc2ccccc2)N(C)C(=O)[C@@H]2CSC1=N2 | 5.2
